Reference: PubChem BioAssay AID1963831 (Molecular Pharmacology Branch, DTP, NCI, 2024)

Test system: 889142-216-R-J1-PDC complex spheroid viability
Assay: Anticancer human tumor 889142-216-R-J1-PDC patient-derived bladder carcinoma cell line growth inhibition [POLQ]
Conditions: for IC50: curve of first compound; for viability, T/C: stronger effect = lower value; active means viability on the fitted dose curve at most 10% of control; inactive means the rest
How it was run: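 PDC + HUVEC + MSC complex spheroids; POLQ inhibitors ± partner drugs; top conc. at/near clinical Cmax, else 10 microM (SN-38 1 microM), half-log dilutions; 37 degrees C, 5% CO2.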

[1] = second compound 0.0316 µM, first compound 0.0316 µM
[2] = second compound 0.0316 µM, first compound 0.1 µM
[3] = second compound 0.0316 µM, first compound 0.316 µM
[4] = second compound 0.0316 µM, first compound 1 µM
[5] = second compound 0.0316 µM, first compound 3.16 µM
[6] = second compound 0.0316 µM, first compound 10 µM
[7] = second compound 0.1 µM, first compound 0.0316 µM
[8] = second compound 0.1 µM, first compound 0.1 µM
[9] = second compound 0.1 µM, first compound 0.316 µM
[10] = second compound 0.1 µM, first compound 1 µM
[11] = second compound 0.1 µM, first compound 3.16 µM
[12] = second compound 0.1 µM, first compound 10 µM
[13] = second compound 0.316 µM, first compound 0.0316 µM
[14] = second compound 0.316 µM, first compound 0.1 µM
[15] = second compound 0.316 µM, first compound 0.316 µM
[16] = second compound 0.316 µM, first compound 1 µM
[17] = second compound 0.316 µM, first compound 3.16 µM
[18] = second compound 0.316 µM, first compound 10 µM
[19] = second compound 1 µM, first compound 0.0316 µM
[20] = second compound 1 µM, first compound 0.1 µM
[21] = second compound 1 µM, first compound 0.316 µM
[22] = second compound 1 µM, first compound 1 µM
[23] = second compound 1 µM, first compound 3.16 µM
[24] = second compound 1 µM, first compound 10 µM
[25] = second compound 3.16 µM, first compound 0.0316 µM
[26] = second compound 3.16 µM, first compound 0.1 µM
[27] = second compound 3.16 µM, first compound 0.316 µM
[28] = second compound 3.16 µM, first compound 1 µM
[29] = second compound 3.16 µM, first compound 3.16 µM
[30] = second compound 3.16 µM, first compound 10 µM
[31] = second compound 10 µM, first compound 0.0316 µM
[32] = second compound 10 µM, first compound 0.1 µM
[33] = second compound 10 µM, first compound 0.316 µM
[34] = second compound 10 µM, first compound 1 µM
[35] = second compound 10 µM, first compound 3.16 µM
[36] = second compound 10 µM, first compound 10 µM
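Further: spheroids exposed to compounds for seven days.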
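Wherever viability, T/C is given: 100% = DMSO vehicle control viability.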

C#Cc1c(F)ccc2cc(O)cc(-c3ncc4c(N5CC6CCC(C5)N6)nc(OCC56CCCN5CC(F)C6)nc4c3F)c12 (stereo unspecified) + Cc1cccc(N(C)C(=O)C2C(O)CCN2c2nc(C)cc(C(F)(F)F)c2C#N)c1
6.08 µM: IC50 (second compound 0.0316 µM)
5.01 µM: IC50 (second compound 0.1 µM) | IC50 (second compound 10 µM)
5.26 µM: IC50 (second compound 0.316 µM)
4.97 µM: IC50 (second compound 3.16 µM)
7.76 µM: IC50 (second compound 1 µM)
inactive: viability, T/C [1] 106% | viability, T/C [2] 87.8% | viability, T/C [3] 82.6% | viability, T/C [4] 103% | viability, T/C [5] 74.8% | viability, T/C [6] 31.1% | viability, T/C [7] 104% | viability, T/C [8] 100% | viability, T/C [9] 78.3% | viability, T/C [10] 97.8% | viability, T/C [11] 62% | viability, T/C [12] 31.9% | viability, T/C [13] 90.2% | viability, T/C [14] 81.3% | viability, T/C [15] 66.4% | viability, T/C [16] 93.7% | viability, T/C [17] 60.8% | viability, T/C [18] 36.3% | viability, T/C [19] 88.6% | viability, T/C [20] 69.1% | viability, T/C [21] 94% | viability, T/C [22] 71.2% | viability, T/C [23] 108% | viability, T/C [24] 39.7% | viability, T/C [25] 98.2% | viability, T/C [26] 85.2% | viability, T/C [27] 64.8% | viability, T/C [28] 74% | viability, T/C [29] 72.5% | viability, T/C [30] 30.5% | viability, T/C [31] 79.3% | viability, T/C [32] 71.4% | viability, T/C [33] 65.8% | viability, T/C [34] 69.7% | viability, T/C [35] 73% | viability, T/C [36] 17.2%

C=CC(=O)N1CCN(c2nc(=O)n(-c3c(C)ccnc3C(C)C)c3nc(-c4c(O)cccc4F)c(F)cc23)C(C)C1 (stereo unspecified) + Cc1cccc(N(C)C(=O)C2C(O)CCN2c2nc(C)cc(C(F)(F)F)c2C#N)c1
inactive: viability, T/C [1] 108% | viability, T/C [2] 93.5% | viability, T/C [3] 102% | viability, T/C [4] 115% | viability, T/C [5] 122% | viability, T/C [6] 81.4% | viability, T/C [7] 110% | viability, T/C [8] 112% | viability, T/C [9] 100% | viability, T/C [10] 101% | viability, T/C [11] 132% | viability, T/C [12] 96.2% | viability, T/C [13] 97.4% | viability, T/C [14] 119% | viability, T/C [15] 123% | viability, T/C [16] 116% | viability, T/C [17] 129% | viability, T/C [18] 106% | viability, T/C [19] 104% | viability, T/C [20] 107% | viability, T/C [21] 107% | viability, T/C [22] 111% | viability, T/C [23] 124% | viability, T/C [24] 89.3% | viability, T/C [25] 98.5% | viability, T/C [26] 89.3% | viability, T/C [27] 93.8% | viability, T/C [28] 97.2% | viability, T/C [29] 138% | viability, T/C [30] 87.9% | viability, T/C [31] 91.1% | viability, T/C [32] 74.8% | viability, T/C [33] 82.5% | viability, T/C [34] 100% | viability, T/C [35] 106% | viability, T/C [36] 76.7%
> 10 µM: IC50 (second compound 0.0316 µM) | IC50 (second compound 0.1 µM) | IC50 (second compound 0.316 µM) | IC50 (second compound 1 µM) | IC50 (second compound 3.16 µM) | IC50 (second compound 10 µM)

CC(C)n1c(=O)n(C)c2cnc3cc(F)c(-c4ccc(OCCCN5CCCCC5)nc4)cc3c21 + Cc1cccc(N(C)C(=O)C2C(O)CCN2c2nc(C)cc(C(F)(F)F)c2C#N)c1
inactive: viability, T/C [1] 83.1% | viability, T/C [2] 75.4% | viability, T/C [3] 89.5% | viability, T/C [4] 84.4% | viability, T/C [5] 58.1% | viability, T/C [6] 14.7% | viability, T/C [7] 87.9% | viability, T/C [8] 78.6% | viability, T/C [9] 77% | viability, T/C [10] 66.8% | viability, T/C [11] 59.3% | viability, T/C [12] 15.5% | viability, T/C [13] 88.9% | viability, T/C [14] 82.6% | viability, T/C [15] 70.3% | viability, T/C [16] 81.6% | viability, T/C [17] 55.6% | viability, T/C [18] 12.8% | viability, T/C [19] 75.5% | viability, T/C [20] 97.5% | viability, T/C [21] 101% | viability, T/C [22] 75.9% | viability, T/C [23] 57% | viability, T/C [24] 15.5% | viability, T/C [25] 80.6% | viability, T/C [26] 87.9% | viability, T/C [27] 77.5% | viability, T/C [28] 98.9% | viability, T/C [29] 65.5% | viability, T/C [30] 12.7% | viability, T/C [31] 70% | viability, T/C [32] 66.3% | viability, T/C [33] 68.5% | viability, T/C [34] 52.7% | viability, T/C [35] 49.5% | viability, T/C [36] 12%
3.68 µM: IC50 (second compound 0.316 µM)
4.43 µM: IC50 (second compound 3.16 µM)
2.19 µM: IC50 (second compound 10 µM)
3.63 µM: IC50 (second compound 0.1 µM)
3.93 µM: IC50 (second compound 0.0316 µM)
3.73 µM: IC50 (second compound 1 µM)
